The text below walks through data of patent US5229371A, “Chemical modification of elsamicin A at the 3' and/or 4' OH groups” (Bristol-Myers Squibb Company, priority 1992, dated 1993).

Values after ≈ are worked out from the molar mass of the structure shown. Read-outs that look alike come from different tables or passages of the source.

One assay relates to B16-F10 melanoma cells. Nature of the assay: cells. As to conditions: Mus musculus, B16-F10, 72 h, read-out: Cytotoxicity IC50.
The test system of assay [1] is lymphoid leukemia L1210. As to conditions: L1210, in vitro; cited from earlier work.
Assay [2] relates to lymphoid leukemia L1210. As to conditions: L1210, in vivo; cited from earlier work.
For the next assay, the system named is B16 melanoma. The experiment in a line: In vivo antitumor activity against B16 melanoma in mice (Q4Dx3, ip). Details: species or system mouse (male BDF1). To be noted: for T/C % of MST / No. of survivors/tested on day 50: Q4D × 3, ip. The protocol:
(§1) In vivo antitumor activity of the above five derivatives was tested in the lymphocytic leukemia P388 and melanoma B16 systems. Female CDF1 (for P388) and male BDF1 (for B16) mice were inoculated by ip injection at 10^6 P388 cells and 0.5 ml of a 10% B16 brei per mouse, respectively (day 0).
(§2) The percent increase of median survival time (MST) of treated animals over that of untreated control animals was determined and reported as T/C %.

Assay [3] deals with melanotic melanoma B16. To be noted: B16, in vitro; cited from earlier work.
A further assay concerns anaerobic bacteria. To be noted: cited from earlier work.
The test system of the next assay is P388 leukemia. Nature of the assay: In vivo antitumor activity against lymphocytic leukemia P388 in mice (Q1Dx3, ip). Also on record: species or system mouse (female CDF1). As to conditions: for T/C % of MST: Q1D × 3, ip; for minimum effective dose (MED) compared with elsamicin A: T/C ≥125 significant. As to the method: as §1, §2
In assay [4] the test system is aerobic gram-positive bacteria. As to conditions: cited from earlier work.
For assay [5], the system named is melanotic melanoma B16. To be noted: B16, in vivo; cited from earlier work.
For assay [6], the system named is leukemia P388. To be noted: P388, in vivo; cited from earlier work.
The subject of assay [7] is leukemia P388. As to conditions: P388, in vitro; cited from earlier work.

Method for B16-F10 melanoma cells: For in vitro cytotoxicity experiment, murine melanoma B16-F10 cells were grown and maintained in Eagle's minimum essential medium (Nissui), which contains kanamycin (60 μg/ml), supplemented with heat-inactivated fetal calf serum (10%) and non-essential amino acids (0.6%) at 37° C. under a humidified atmosphere in a 5% CO2 incubator. Exponentially growing B16-F10 cells were harvested, counted and suspended in the culture medium at the concentration of 2.0×10^4 cells/ml. The cell suspension (180 μl) was planted into wells of a 96-well microtiter plate and incubated for 24 hours. Test compound (20 μl) were added to the wells and the plates were further incubated for 72 hours. The cytotoxic activity was colorimetrically determined at 540 nm after staining viable cells with neutral red solution.

Turning to `COC1C(N)C(OC2C(Oc3cccc4c(O)c5c(=O)oc6ccc(C)c7c(=O)oc(c34)c5c67)OC(C)C(O)C2(C)O)OC(C)C1O` (stereo not shown) [Compound 1, Elsamicin A], in the assay on B16-F10 melanoma cells, the IC50 came out at 0.03 mg/L (≈ 0.0459 µM). Moreover, the “activity against murine tumor cells” value in the assay on lymphoid leukemia L1210 [1], with lymphoid leukemia L1210 [2], in the assay on melanotic melanoma B16 [3], with melanotic melanoma B16 [5], in the assay with leukemia P388 [6] and with leukemia P388 [7] was “exerts activity” in each case. The “T/C % of MST” value in the assay with B16 melanoma (B16, 0.1 mg/kg/day) is reported as 116%; in the assay with B16 melanoma (B16, 0.3 mg/kg/day) it was 139%; in the assay on B16 melanoma (B16, 1 mg/kg/day), 179%; in the assay on B16 melanoma (B16, 3 mg/kg/day), not below 216%; with B16 melanoma (B16, 10 mg/kg/day), not below 298%; in the assay on P388 leukemia (P388, 0.1 mg/kg/day), 123%. Besides, the “T/C % of MST” value in the assay on P388 leukemia (P388, 0.3 mg/kg/day) is 140%; in the assay with P388 leukemia (P388, 1 mg/kg/day), 155%; in the assay on P388 leukemia (P388, 3 mg/kg/day), 180%; in the assay on P388 leukemia (P388, 10 mg/kg/day) it was 190%; in the assay on P388 leukemia (P388, 20 mg/kg/day), “Tox”. The “No. of survivors/tested on day 50” value in the assay with B16 melanoma (B16, 3 mg/kg/day) was 2/12; in the assay with B16 melanoma (B16, 10 mg/kg/day) it was 2/12. Further, the antibacterial activity entry (with anaerobic bacteria; in [4]) was “exhibits antibacterial activity” in each case.
For the compound `COC1C(N)C(OC2C(Oc3cccc4c(O)c5c(=O)oc6ccc(C)c7c(=O)oc(c34)c5c67)OC(C)C3OC(C)(C)OC32C)OC(C)C1O` (stereo not shown) [Compound 6a, 3',4'-O-Isopropylideneelsamicin A], the half-maximal inhibitory concentration (IC50) in the assay on B16-F10 melanoma cells came to 0.025 mg/L (≈ 0.036 µM). Moreover, the “T/C % of MST” value in the assay with B16 melanoma (B16, 0.1 mg/kg/day) was 105%; in the assay with B16 melanoma (B16, 0.3 mg/kg/day), 116%; with B16 melanoma (B16, 1 mg/kg/day), 166%; in the assay on B16 melanoma (B16, 3 mg/kg/day), 192%; in the assay on B16 melanoma (B16, 10 mg/kg/day) it was 82%; in the assay on P388 leukemia (P388, 0.1 mg/kg/day), 120%. Further, the “T/C % of MST” value in the assay on P388 leukemia (P388, 0.3 mg/kg/day) stood at 140%; in the assay with P388 leukemia (P388, 1 mg/kg/day) it was 170%; in the assay on P388 leukemia (P388, 3 mg/kg/day), 210%. The “minimum effective dose (MED) compared with elsamicin A” value with P388 leukemia (P388 system) is listed as “as active as the parent compounds”.
Take `COC1C(N)C(OC2C(Oc3cccc4c(O)c5c(=O)oc6ccc(C)c7c(=O)oc(c34)c5c67)OC(C)C3OC4(CCCCC4)OC32C)OC(C)C1O` (stereo not shown) [Compound 6b, 3',4'-O-Cyclohexylideneelsamicin A]: the IC50 in the assay with B16-F10 melanoma cells was 0.04 mg/L (≈ 0.0545 µM). The “T/C % of MST” value is recorded as 111% with B16 melanoma (B16, 0.3 mg/kg/day); 132% in the assay on B16 melanoma (B16, 1 mg/kg/day); 175% in the assay on B16 melanoma (B16, 3 mg/kg/day); 200% with B16 melanoma (B16, 10 mg/kg/day); 120% with P388 leukemia (P388, 0.3 mg/kg/day); 140% with P388 leukemia (P388, 1 mg/kg/day). For the same compound, the “T/C % of MST” value with P388 leukemia (P388, 3 mg/kg/day) stood at 175%; in the assay on P388 leukemia (P388, 10 mg/kg/day), 165%.
Turning to `COC1C(N)C(OC2C(Oc3cccc4c(O)c5c(=O)oc6ccc(C)c7c(=O)oc(c34)c5c67)OC(C)C3OC(c4ccccc4)OC32C)OC(C)C1O` (stereo not shown) [Compound 6c, 3',4'-O-Benzylideneelsamicin A], the IC50 in the assay on B16-F10 melanoma cells was found to be 0.07 mg/L (≈ 0.0944 µM). Moreover, the “T/C % of MST” value with B16 melanoma (B16, 0.1 mg/kg/day) is 121%; in the assay with B16 melanoma (B16, 0.3 mg/kg/day) it was 114%; in the assay with B16 melanoma (B16, 1 mg/kg/day), 136%; in the assay with B16 melanoma (B16, 3 mg/kg/day) it was 179%; with B16 melanoma (B16, 10 mg/kg/day), 186%; with P388 leukemia (P388, 0.1 mg/kg/day), 110%. In addition, the “T/C % of MST” value is 130% in the assay with P388 leukemia (P388, 0.3 mg/kg/day); 150% with P388 leukemia (P388, 1 mg/kg/day); 165% with P388 leukemia (P388, 3 mg/kg/day); 180% with P388 leukemia (P388, 10 mg/kg/day); “Tox” in the assay on P388 leukemia (P388, 20 mg/kg/day). In addition, the “minimum effective dose (MED) compared with elsamicin A” value in the assay on P388 leukemia (P388 system) is recorded as “as active as the parent compounds”.
Regarding `COC1OC2C(C)OC(Oc3cccc4c(O)c5c(=O)oc6ccc(C)c7c(=O)oc(c34)c5c67)C(OC3OC(C)C(O)C(OC)C3N)C2(C)O1` (stereo not shown) [Compound 6d, 3',4'-O-Methoxymethylideneelsamicin A], the concentration for half-maximal inhibition (IC50) in the assay on B16-F10 melanoma cells was found to be 0.05 mg/L (≈ 0.0719 µM). Also, the “T/C % of MST” value in the assay with B16 melanoma (B16, 0.1 mg/kg/day) is 120%; in the assay on B16 melanoma (B16, 0.3 mg/kg/day), 137%; in the assay on B16 melanoma (B16, 1 mg/kg/day) it was 167%; in the assay on B16 melanoma (B16, 3 mg/kg/day), 283%; with B16 melanoma (B16, 10 mg/kg/day) it was not below 333%; with P388 leukemia (P388, 0.1 mg/kg/day), 124%. Also, the “T/C % of MST” value is listed as 137% in the assay on P388 leukemia (P388, 0.3 mg/kg/day); 167% with P388 leukemia (P388, 1 mg/kg/day); 167% in the assay with P388 leukemia (P388, 3 mg/kg/day); 224% in the assay with P388 leukemia (P388, 10 mg/kg/day); “Tox” with P388 leukemia (P388, 20 mg/kg/day). Further, in the assay on B16 melanoma (B16, 10 mg/kg/day), the “No. of survivors/tested on day 50” value is on record as 3/4. In addition, the “response / therapeutic activity (in words)” value in the assay with B16 melanoma (B16 system) is given as “extremely potent therapeutic activity”. For the same compound, the “T/C % values compared with elsamicin A (1)” value in the assay on B16 melanoma (B16 system, 3 and 10 mg/kg/day) was “higher T/C % values”. Also, in the assay on P388 leukemia (P388 system), the “minimum effective dose (MED) compared with elsamicin A” value is “as active as the parent compounds”.
As to `COC1C(N)C(OC2C(Oc3cccc4c(O)c5c(=O)oc6ccc(C)c7c(=O)oc(c34)c5c67)OC(C)C(OC3CCCCO3)C2(C)O)OC(C)C1O` (stereo not shown) [Compound 8, 4'-O-Tetrahydropyranylelsamicin A], in the assay on B16-F10 melanoma cells, the IC50 was determined as 0.04 mg/L (≈ 0.0542 µM). In addition, the “T/C % of MST” value in the assay on B16 melanoma (B16, 0.1 mg/kg/day) is on record as 133%; in the assay on B16 melanoma (B16, 0.3 mg/kg/day), 159%; with B16 melanoma (B16, 1 mg/kg/day), 248%; in the assay with B16 melanoma (B16, 3 mg/kg/day) it was not below 281%; in the assay on B16 melanoma (B16, 10 mg/kg/day), not below 330%; in the assay with B16 melanoma (B16, 20 mg/kg/day), not below 370%. The “T/C % of MST” value in the assay on P388 leukemia (P388, 0.1 mg/kg/day) was 130%; in the assay with P388 leukemia (P388, 0.3 mg/kg/day), 145%; with P388 leukemia (P388, 1 mg/kg/day), 168%; in the assay with P388 leukemia (P388, 3 mg/kg/day), 190%; in the assay with P388 leukemia (P388, 10 mg/kg/day), 225%; in the assay on P388 leukemia (P388, 20 mg/kg/day), “Tox”. For the same compound, the “No. of survivors/tested on day 50” value in the assay with B16 melanoma (B16, 3 mg/kg/day) is reported as 1/4; in the assay with B16 melanoma (B16, 10 mg/kg/day) it was 2/4; with B16 melanoma (B16, 20 mg/kg/day) it was 3/4. For the same compound, the “MED and T/C % values compared with elsamicin A (1)” value in the assay on B16 melanoma (B16 system) is recorded as “better than elsamicin A (1)”. In addition, in the assay on B16 melanoma (B16 system, 3~20 mg/kg/day), the “survivors on day 50 (in words)” value is on record as “Some survivors”. In the assay with P388 leukemia (P388 system), the “T/C % values (in words)” value is recorded as “high T/C % values”. Moreover, the “minimum effective dose (MED) compared with elsamicin A” value in the assay on P388 leukemia (P388 system) was “three times more potent”.
